# Experimental data from patent publication US12472177B2, “Bicyclic compounds and methods for their use in treating Pitt Hopkins syndrome” (NEUREN PHARMACEUTICALS LIMITED, priority 2019, dated 2025).
# Tests used:
# Tcf4^+/− mice [1] = experiment: Nest building (test of daily living); type: in vivo, mouse
# Method: (§1) In vivo behavioral studies were conducted in Tcf4^+/− mutant and wildtype littermate control (WT) mice by Gen.DDI (Santiago, Chile). Littermate controls consist of the genotypes Tcf4^+/+. All Tcf4 mutant mice used were heterozygous for the Tcf4 mutation because homozygous mutations of Tcf4 result in embryonic to postnatal day 1 lethality. Ten mice per treatment group, 14 weeks of age, were used for behavioral experiments. Experiments were conducted in line with the requirements of the UK Animals (Scientific Procedures) Act, 1986. The mice were housed in plastic cages (35×30×12 cm), 5 in each and habituated to the animal facilities for at least a week before commencing the test. The room temperature (21° C.±2° C.), relative humidity (55%±5%), a 12-hour light-dark cycle (lights on 7 AM to 7 PM), and air exchange were automatically controlled. The animals had free access to commercial food pellets and water. Testing was performed during the light phase of the circadian cycle, with the order of testing being determined by the principle of conducting the most stressful tests last. Assays were designed to reproduce and expand on the original behavioral characterization of Tcf4^+/− mice. Tcf4^+/− and WT control mice were treated for 6 weeks prior to testing and tested 30 minutes following a dose of cG-2-AllylP, as described in Table 2 below.
# Nest building is an activity needed for mice to raise their offspring and is an indicator of social adaptation and activities of daily living. Tcf4^+/− mice build nests of substantially lower quality than wild type mice. Therefore, to determine if NNZ-2591 (cG-2-AllylP) might restore the quality of nest building, we carried out a series of studies.
# Tcf4^+/− mice [2] = experiment: Self grooming (repetitive behavior); type: in vivo, mouse; set-up: key to Self-Grooming/Repetitive Behavior: Tukey’s Multiple Comparison Test Summary: **** = p < 0.00001; ns = not significant
# Method: as §1
# Repetitive self-grooming is a feature of mice. Tcf4^+/− mice show an increased amount of self-grooming compared to wild type mice. To see if NNZ-2591 (cG-2-AllylP) can normalize self-grooming behavior in Tcf4^+/− mice, we carried out a series of studies, as shown in FIG. 3.
# The amount of time spent grooming in seconds during a 10-minute test period is shown on the vertical axis, and the animals and treatments are shown on the horizontal axis. Wild type (WT) mice treated with vehicle alone (left column) self-groomed for about 110 sec. […] This difference was not statistically significant. […] This statistically significant finding was completely unexpected in Tcf4^+/− mice.
# Tcf4^+/− mice [3] = experiment: Tcf4^+/− mouse model of Pitt Hopkins Syndrome, all tested behaviors (summary); type: in vivo
# Method: Several genetically manipulated rodent models of PTHS have been created (Thaxton et al, 2018; Sweatt, 2013). These models share a common basis around heterozygous Tcf4 (Tcf4^+/−). Haploinsufficient mice (Tcf4^+/−) have been characterized as a model system for PTHS (Kennedy et al, 2016).
# as §1
# [4] = Tcf4^+/− + cG-2-AllylP (100 mg/kg) vs Tcf4^+/− + cG-2-AllylP (200 mg/kg)
# [5] = Tcf4^+/− + cG-2-AllylP (100 mg/kg) vs WT + cG-2-AllylP (200 mg/kg)
# [6] = Tcf4^+/− + vehicle vs Tcf4^+/− + cG-2-AllylP (100 mg/kg)
# [7] = Tcf4^+/− + vehicle vs Tcf4^+/− + cG-2-AllylP (200 mg/kg)
# [8] = Tcf4^+/− + vehicle vs WT + cG-2-AllylP (100 mg/kg)
# [9] = Tcf4^+/− + vehicle vs WT + cG-2-AllylP (200 mg/kg)
# [10] = WT + cG-2-AllylP (100 mg/kg) vs Tcf4^+/− + cG-2-AllylP (100 mg/kg)
# [11] = WT + cG-2-AllylP (100 mg/kg) vs Tcf4^+/− + cG-2-AllylP (200 mg/kg)
# [12] = WT + cG-2-AllylP (100 mg/kg) vs WT + cG-2-AllylP (200 mg/kg)
# [13] = WT + cG-2-AllylP (200 mg/kg) vs Tcf4^+/− + cG-2-AllylP (200 mg/kg)
# [14] = WT + vehicle vs Tcf4^+/− + cG-2-AllylP (100 mg/kg)
# [15] = WT + vehicle vs Tcf4^+/− + cG-2-AllylP (200 mg/kg)
# [16] = WT + vehicle vs WT + cG-2-AllylP (100 mg/kg)
# [17] = WT + vehicle vs WT + cG-2-AllylP (200 mg/kg)
# [18] = WT mice, 100 mg/kg oral BID 6 weeks
smiles,measurement,setting,value
"C=CC[C@]12CCCN1C(=O)CNC2=O [cG-2-AllylP, (8aS)-Allyl-hexahydropyrrolo[1,2-a]pyrazine-1,4-dione]",Test of Daily Living: Tukey’s Multiple Comparison Test Summary,Tcf4^+/− mice [1]; [4],ns
same,Test of Daily Living: Tukey’s Multiple Comparison Test Summary,Tcf4^+/− mice [1]; [5],ns
same,Test of Daily Living: Tukey’s Multiple Comparison Test Summary,Tcf4^+/− mice [1]; [6],**** (**** = p < 0.0001)
same,Test of Daily Living: Tukey’s Multiple Comparison Test Summary,Tcf4^+/− mice [1]; [7],**** (**** = p < 0.0001)
same,Test of Daily Living: Tukey’s Multiple Comparison Test Summary,Tcf4^+/− mice [1]; [8],**** (**** = p < 0.0001)
same,Test of Daily Living: Tukey’s Multiple Comparison Test Summary,Tcf4^+/− mice [1]; [9],**** (**** = p < 0.0001)
same,Behavior Normalized to WildType Levels: Nesting,"Tcf4^+/− mice [1]; Tcf4^+/− mice, 100 mg/kg",✓
same,Nest building quality (grade of 1-5),"Tcf4^+/− mice [1]; Tcf4^+/− mice, 100 mg/kg oral BID 6 weeks",normalized the quality of nests to levels nearly identical to WT mice
same,Behavior Normalized to WildType Levels: Nesting,"Tcf4^+/− mice [1]; Tcf4^+/− mice, 200 mg/kg",✓
same,Nest building quality (grade of 1-5),"Tcf4^+/− mice [1]; Tcf4^+/− mice, 200 mg/kg oral BID 6 weeks",normalized the quality of nests to levels nearly identical to WT mice
same,Test of Daily Living: Tukey’s Multiple Comparison Test Summary,Tcf4^+/− mice [1]; [10],ns
same,Test of Daily Living: Tukey’s Multiple Comparison Test Summary,Tcf4^+/− mice [1]; [11],ns
same,Test of Daily Living: Tukey’s Multiple Comparison Test Summary,Tcf4^+/− mice [1]; [12],ns
same,Test of Daily Living: Tukey’s Multiple Comparison Test Summary,Tcf4^+/− mice [1]; [13],ns
same,Test of Daily Living: Tukey’s Multiple Comparison Test Summary,Tcf4^+/− mice [1]; [14],ns
same,Test of Daily Living: Tukey’s Multiple Comparison Test Summary,Tcf4^+/− mice [1]; [15],ns
same,Test of Daily Living: Tukey’s Multiple Comparison Test Summary,Tcf4^+/− mice [1]; [16],ns
same,Test of Daily Living: Tukey’s Multiple Comparison Test Summary,Tcf4^+/− mice [1]; [17],ns
same,Nest building quality (grade of 1-5),Tcf4^+/− mice [1]; [18],nearly identical to those of vehicle-treated WT mice
same,Nest building quality (grade of 1-5),"Tcf4^+/− mice [1]; WT mice, 200 mg/kg oral BID 6 weeks",nearly identical to those of vehicle-treated WT mice
same,Self-Grooming/Repetitive Behavior: Tukey’s Multiple Comparison Test Summary,Tcf4^+/− mice [2]; [4],ns
same,Self-Grooming/Repetitive Behavior: Tukey’s Multiple Comparison Test Summary,Tcf4^+/− mice [2]; [5],ns
same,Self-Grooming/Repetitive Behavior: Tukey’s Multiple Comparison Test Summary,Tcf4^+/− mice [2]; [6],**** (**** = p < 0.0001)
same,Self-Grooming/Repetitive Behavior: Tukey’s Multiple Comparison Test Summary,Tcf4^+/− mice [2]; [7],**** (**** = p < 0.0001)
same,Self-Grooming/Repetitive Behavior: Tukey’s Multiple Comparison Test Summary,Tcf4^+/− mice [2]; [8],**** (**** = p < 0.0001)
same,Self-Grooming/Repetitive Behavior: Tukey’s Multiple Comparison Test Summary,Tcf4^+/− mice [2]; [9],**** (**** = p < 0.0001)
same,Behavior Normalized to WildType Levels: Self-groom,"Tcf4^+/− mice [2]; Tcf4^+/− mice, 100 mg/kg",✓
same,Time spent self-grooming during a 10-minute test period,"Tcf4^+/− mice [2]; Tcf4^+/− mice, 100 mg/kg oral BID 6 weeks, 100 mg/kg",corrected
same,Time spent self-grooming during a 10-minute test period,"Tcf4^+/− mice [2]; Tcf4^+/− mice, 100 mg/kg oral BID 6 weeks, listed as NNZ-2591, 100 mg/kg",about the same amount of time self-grooming as WT vehicle treated mice
same,Behavior Normalized to WildType Levels: Self-groom,"Tcf4^+/− mice [2]; Tcf4^+/− mice, 200 mg/kg",✓
same,Time spent self-grooming during a 10-minute test period,"Tcf4^+/− mice [2]; Tcf4^+/− mice, 200 mg/kg oral BID 6 weeks, 200 mg/kg",corrected
same,Time spent self-grooming during a 10-minute test period,"Tcf4^+/− mice [2]; Tcf4^+/− mice, 200 mg/kg oral BID 6 weeks, listed as NNZ-2591, 200 mg/kg",about the same amount of time self-grooming as WT vehicle treated mice
same,Self-Grooming/Repetitive Behavior: Tukey’s Multiple Comparison Test Summary,Tcf4^+/− mice [2]; [10],ns
same,Self-Grooming/Repetitive Behavior: Tukey’s Multiple Comparison Test Summary,Tcf4^+/− mice [2]; [11],ns
same,Self-Grooming/Repetitive Behavior: Tukey’s Multiple Comparison Test Summary,Tcf4^+/− mice [2]; [12],ns
same,Self-Grooming/Repetitive Behavior: Tukey’s Multiple Comparison Test Summary,Tcf4^+/− mice [2]; [13],ns
same,Self-Grooming/Repetitive Behavior: Tukey’s Multiple Comparison Test Summary,Tcf4^+/− mice [2]; [14],ns
same,Self-Grooming/Repetitive Behavior: Tukey’s Multiple Comparison Test Summary,Tcf4^+/− mice [2]; [15],ns
same,Self-Grooming/Repetitive Behavior: Tukey’s Multiple Comparison Test Summary,Tcf4^+/− mice [2]; [16],ns
same,Self-Grooming/Repetitive Behavior: Tukey’s Multiple Comparison Test Summary,Tcf4^+/− mice [2]; [17],ns
same,Time spent self-grooming during a 10-minute test period,Tcf4^+/− mice [2]; [18],about the same amount of time as did WT mice treated with vehicle alone
same,Rescue of tested behaviors of the PTHS phenotype,"Tcf4^+/− mice [3]; Tcf4^+/− mice, 100 mg/kg for 6 weeks","rescued all tested behaviors, except for fear conditioning"
same,Rescue of tested behaviors of the PTHS phenotype,"Tcf4^+/− mice [3]; Tcf4^+/− mice, 200 mg/kg for 6 weeks",rescued all tested behaviors of the PTHS phenotype
same,Rescue of the phenotype of the Tcf4^+/− knockout mouse model,"Tcf4^+/− mice [3]; Tcf4^+/− mice, oral administration for 6 weeks",can rescue the phenotype
same,Impact on wild type control mice,"Tcf4^+/− mice [3]; WT mice, oral administration for 6 weeks",no impact
